In patent US20160184274A1, “Methods for inhibiting mesenchymal phenotype after epithelial-to-mesenchymal transition” (Fibrostatin, S.L., priority 2014, published 2016):

Key:
4T1 cells = experiment: Cell death / caspase 3 activation in 4T1 cells; assay type: cell-based, Mouse; conditions: same T12 concentrations as for circulating 4T1 cells; FIG. 11D-E
Description: FIG. 11. T12 targets circulating 4T1 cancer cells. A, Balb/c female mice were inoculated with 4T1 mouse breast cancer cells at mammary fat pads. At day 20 after cell inoculation mice were subjected to PET analysis for metastases detection. White arrows denote metastatic foci at the spinal cord. B, Balb/c female from A were either left untreated (Control), or were treated with T12 in drinking water from day 20. At day 35 blood was seeded in the presence of 6-thioguanine and circulating 4T1 cells selected and further cultured. Shown are phase contrast images of the resulting cultures acquired with an inverted microscope. […] C, circulating 4T1 cells recovered as in B and 4T1 cells were cultured in standard 2D cultures and subjected to RNA extraction, and RNA samples were analyzed by RT-qPCR. Shown are the relative quantities (RQ) of the indicated mRNAs of circulating 4T1 cells using levels from 4T1 cells as reference. […] Dead cells in culture media were quantified by measuring cell size using an automated cell counter (Moxi Z, Orflo). […] E, circulating 4T1 cells recovered as in B or 4T1 cells were cultured in ultra-low binding plates and treated with the indicated concentrations of T12 for 9 days, cells were lysed and analyzed by Western blot using antibodies specific for activated caspase 3. The levels of GAPDH were determined for loading control purposes. […]

RAW264.7 = experiment: Collagen IV expression in RAW264.7; assay type: cell-based; conditions: data not shown
[1] = test system: mesenchymal A549 spheroids; experiment: Collagen network in mesenchymal spheroids, confocal microscopy; assay type: cell-based, Human
Description: FIG. 7. T12 disrupts collagen IV network and reduces A549 mesenchymal spheroids viability. A549 spheroids were subjected to EMT induction with TGF-β and TNF-α during 4 days, and treated with T12 (10 μM) or maintained untreated (Cont) for the last 2 days. In A, spheroids were analyzed by immunofluorescence confocal microscopy with anti-α1α2 (IV) antibodies (COL4, white) and DAPI to visualize the cell nuclei (grey). In B, the culture media of the spheroids in A were used for assessing cell death by measuring LDH activity. […] Represented are Means (±SEM).
Three-dimensional spheroid cultures of A549 cells were obtained using a hanging droplet method (Kelm et al., 2003. Biotechnol. Bioeng. 83: 173-180.; Kumar et al., 2013. PLoS One. 8: e68597). Briefly, cells were grown to approximately 80% confluence on adherent tissue-culture flasks. Then cells were trypsinized, dispersed in DMEM/10% FBS, and counted using an automated cell counter (MOXI® Z, Orflo). The cell suspension was diluted to a 10^6 cells/mL-concentration, and 25 μl of the cell suspension were pipetted onto the underside of a sterile 10-cm tissue culture plate lid. Each lid was loaded with approximately 55 droplets. After loading, the lid was placed onto a tissue culture plate containing 6 mL of sterile PBS (phosphate-buffered saline) and incubated for 48 hours to facilitate spheroid formation. […]

SMILES: COc1ccc(-c2ccc(-c3cccc(C)c3)c(C)c2)c(CCC(=O)O)c1 [T12, 3-[4″-methoxy-3,2′-dimethyl-(1,1′;4′,1″)terphenyl-2″-yl] propionic acid]
- sensitivity to T12: dead cells and activated caspase 3 (4T1 cells): little effect on 4T1 cells
- collagen IV expression (RAW264.7): significantly reduced collagen IV expression
- collagen IV network formation ([1]; T12 10 μM for the last 2 days of 4-day EMT induction with TGF-β and TNF-α, FIG. 7A): inhibited collagen IV network formation
- fibrillary collagen I ([1]; data not shown): sharply reduced fibrillary collagen I
